Data: PubChem BioAssay AID248 (DTP/NCI, 2004)
Several values for one entry are separate records, joined by “and”; a condition that tells them apart may be missing. Identical values can stand only once. Inconclusive results and toxic doses are left out.

Test system: L1210 leukemia ip in BDF1 mice, survival T/C
Test: NCI In Vivo Anticancer Drug Screen. Data for tumor model L1210 Leukemia (intraperitoneal) in B6D2F1 (BDF1) mice
Details: endpoint: mean survival time, higher = longer survival
Summary of the method: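 Mice bearing the transplanted tumor received compound or vehicle. Survival of the treated group was divided by that of the vehicle-treated control group to give the ratio.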

[1] = dose: 100.0 mg/kg/injection, schedule: Q04DX003 (ip), vehicle: saline with Tween-80
[2] = dose: 200.0 mg/kg/injection, schedule: Q04DX003 (ip), vehicle: saline with Tween-80
[3] = dose: 400.0 mg/kg/injection, schedule: Q04DX003 (ip), vehicle: saline with Tween-80
[4] = dose: 100.0 mg/kg/injection, schedule: Q01DX001 (ip), vehicle: saline
[5] = dose: 200.0 mg/kg/injection, schedule: Q01DX001 (ip), vehicle: saline
[6] = dose: 400.0 mg/kg/injection, schedule: Q01DX001 (ip), vehicle: saline
[7] = dose: 100.0 mg/kg/injection, schedule: Q04DX003 (ip), vehicle: saline
[8] = dose: 200.0 mg/kg/injection, schedule: Q04DX003 (ip), vehicle: saline
[9] = dose: 50.0 mg/kg/injection, schedule: Q01DX001 (ip), vehicle: saline
[10] = dose: 50.0 mg/kg/injection, schedule: Q01DX009 (ip), vehicle: saline with Tween-80
[11] = dose: 100.0 mg/kg/injection, schedule: Q01DX009 (ip), vehicle: saline with Tween-80
[12] = dose: 200.0 mg/kg/injection, schedule: Q01DX009 (ip), vehicle: saline with Tween-80
[13] = dose: 100.0 mg/kg/injection, schedule: Q01DX009 (ip), vehicle: Klucel (hydroxypropylcellulose) (HPC)
[14] = dose: 100.0 mg/kg/injection, schedule: Q04DX002 (ip), vehicle: Klucel (hydroxypropylcellulose) (HPC)

Cn1c2ccccc2c2cc3cnccc3cc21
T/C (dose: 37.5 mg/kg/injection, schedule: Q04DX003 (ip), vehicle: Klucel (hydroxypropylcellulose) (HPC)): 102 % of control | T/C (dose: 75.0 mg/kg/injection, schedule: Q04DX003 (ip), vehicle: Klucel (hydroxypropylcellulose) (HPC)): 105 % of control | T/C (dose: 150.0 mg/kg/injection, schedule: Q04DX003 (ip), vehicle: Klucel (hydroxypropylcellulose) (HPC)): 106 % of control | T/C (dose: 300.0 mg/kg/injection, schedule: Q04DX003 (ip), vehicle: Klucel (hydroxypropylcellulose) (HPC)): 111 % of control

CC(C)C(CN)(CCCCN1CCOCC1)c1cccc2ccccc12 (stereo unspecified)
T/C [1]: 100 % of control | T/C [2]: 95 % of control | T/C [3]: 95 % of control

Cc1nc(N)sc1S(=O)(=O)F
T/C [4]: 96 % of control | T/C [1]: 89 % of control | T/C [5]: 97 % of control | T/C [2]: 97 % of control | T/C [6]: 102 % of control | T/C [3]: 97 % of control

C[N+]1(CCO)CC[N+](C)(CCCN2c3ccccc3Sc3ccc(Cl)cc32)CC1 (stereo unspecified)
T/C (dose: 10.0 mg/kg/injection, schedule: Q01DX001 (ip), vehicle: carboxymethylcellulose (CMC)): 98 % of control | T/C (dose: 20.0 mg/kg/injection, schedule: Q01DX001 (ip), vehicle: carboxymethylcellulose (CMC)): 101 % of control | T/C (dose: 40.0 mg/kg/injection, schedule: Q01DX001 (ip), vehicle: carboxymethylcellulose (CMC)): 113 % of control

Cc1ccccc1-n1nnnc1N
T/C [7]: 102 % of control | T/C [8]: 96 % of control | T/C (dose: 400.0 mg/kg/injection, schedule: Q04DX003 (ip), vehicle: saline): 98 % of control

OC1c2ccccc2CC1N1CCCCC1 (stereo unspecified)
T/C (dose: 100.0 mg/kg/injection, schedule: Q01DX001 (ip), vehicle: saline with Tween-80): 97 % of control

C1OC1CN1CCC(C2CCN(CC3CO3)CC2)CC1 (stereo unspecified)
T/C (dose: 0.61 mg/kg/injection, schedule: Q01DX009 (ip), vehicle: saline): 114 % of control | T/C (dose: 2.1 mg/kg/injection, schedule: Q01DX009 (ip), vehicle: saline): 156 % of control | T/C (dose: 2.9 mg/kg/injection, schedule: Q01DX001 (ip), vehicle: saline): 121 % of control | T/C (dose: 3.5 mg/kg/injection, schedule: Q01DX009 (ip), vehicle: saline): 120 % of control | T/C (dose: 4.3 mg/kg/injection, schedule: Q01DX001 (ip), vehicle: saline): 115 % of control | T/C (dose: 4.4 mg/kg/injection, schedule: Q01DX001 (ip), vehicle: saline): 159 % of control | T/C (dose: 6.6 mg/kg/injection, schedule: Q01DX001 (ip), vehicle: saline): 122 % of control | T/C (dose: 15.0 mg/kg/injection, schedule: Q01DX001 (ip), vehicle: saline): 160 % of control | T/C (dose: 15.0 mg/kg/injection, schedule: Q01DX009 (ip), vehicle: saline): 150 % of control and 152 % of control | T/C [9]: 164 % of control | T/C (dose: 60.0 mg/kg/injection, schedule: Q01DX001 (ip), vehicle: saline): 156 % of control | T/C (dose: 60.0 mg/kg/injection, schedule: Q01DX009 (ip), vehicle: saline): 91 % of control

CC(C(N)=O)N1C(=O)C2C3C=CC(C3)C2C1=O (stereo unspecified)
T/C [1]: 109 % of control | T/C [3]: 97 % of control

[CH3][Sb]1([Cl])[CH2]CC[CH2]1
T/C [1]: 103 % of control | T/C [7]: 101 % of control | T/C [2]: 107 % of control | T/C [8]: 108 % of control

CC(C)(C)OC(=O)C1=CNCCC1
T/C [4]: 102 % of control | T/C [7]: 106 % of control | T/C [5]: 94 % of control | T/C [8]: 98 % of control | T/C [6]: 105 % of control

CCOCC(=O)CC(C)(C)C
T/C [10]: 92 % of control | T/C [11]: 92 % of control | T/C [12]: 103 % of control

CC12CCCCC1C(C(N)=O)C(=O)O2 (stereo unspecified)
T/C [4]: 105 % of control | T/C [5]: 97 % of control | T/C [6]: 105 % of control

O=C(O)c1cc(C(=O)O)cc([N+](=O)[O-])c1
T/C [10]: 93 % of control | T/C [11]: 91 % of control | T/C [1]: 95 % of control | T/C [2]: 95 % of control

CN1CCN(CCNc2ccc(CO)c3sc4ccccc4c(=O)c23)CC1
T/C (dose: 31.25 mg/kg/injection, schedule: Q01DX009 (ip), vehicle: Klucel (hydroxypropylcellulose) (HPC)): 100 % of control | T/C (dose: 62.5 mg/kg/injection, schedule: Q01DX009 (ip), vehicle: Klucel (hydroxypropylcellulose) (HPC)): 97 % of control | T/C (dose: 125.0 mg/kg/injection, schedule: Q01DX009 (ip), vehicle: Klucel (hydroxypropylcellulose) (HPC)): 105 % of control

Nc1c(Cl)cc(C(=O)NC2CC2)cc1Cl
T/C (dose: 6.25 mg/kg/injection, schedule: Q01DX009 (ip), vehicle: Klucel (hydroxypropylcellulose) (HPC)): 103 % of control | T/C (dose: 12.5 mg/kg/injection, schedule: Q01DX009 (ip), vehicle: Klucel (hydroxypropylcellulose) (HPC)): 94 % of control | T/C (dose: 25.0 mg/kg/injection, schedule: Q01DX009 (ip), vehicle: Klucel (hydroxypropylcellulose) (HPC)): 92 % of control | T/C (dose: 25.0 mg/kg/injection, schedule: Q04DX003 (ip), vehicle: Klucel (hydroxypropylcellulose) (HPC)): 104 % of control | T/C (dose: 50.0 mg/kg/injection, schedule: Q01DX009 (ip), vehicle: Klucel (hydroxypropylcellulose) (HPC)): 97 % of control | T/C (dose: 50.0 mg/kg/injection, schedule: Q04DX003 (ip), vehicle: Klucel (hydroxypropylcellulose) (HPC)): 98 % of control | T/C [13]: 100 % of control | T/C (dose: 100.0 mg/kg/injection, schedule: Q04DX003 (ip), vehicle: Klucel (hydroxypropylcellulose) (HPC)): 104 % of control

O=S(=O)(C/C=C/CC(Cl)(Cl)Cl)C/C=C/CC(Cl)(Cl)Cl
T/C (dose: 100.0 mg/kg/injection, schedule: Q01DX001 (ip), vehicle: acetone): 95 % of control | T/C (dose: 100.0 mg/kg/injection, schedule: Q01DX009 (ip), vehicle: saline): 90 % of control | T/C (dose: 100.0 mg/kg/injection, schedule: Q04DX003 (ip), vehicle: acetone): 97 % of control | T/C (dose: 200.0 mg/kg/injection, schedule: Q01DX001 (ip), vehicle: acetone): 94 % of control | T/C (dose: 200.0 mg/kg/injection, schedule: Q01DX009 (ip), vehicle: saline): 93 % of control | T/C (dose: 200.0 mg/kg/injection, schedule: Q04DX003 (ip), vehicle: acetone): 95 % of control | T/C (dose: 400.0 mg/kg/injection, schedule: Q01DX001 (ip), vehicle: acetone): 89 % of control | T/C (dose: 400.0 mg/kg/injection, schedule: Q01DX009 (ip), vehicle: saline): 92 % of control | T/C (dose: 400.0 mg/kg/injection, schedule: Q04DX003 (ip), vehicle: acetone): 95 % of control

NNC(=O)C(Cc1cnc[nH]1)NC(=O)OCc1ccccc1 (stereo unspecified)
T/C [14]: 100 % of control | T/C (dose: 200.0 mg/kg/injection, schedule: Q04DX002 (ip), vehicle: Klucel (hydroxypropylcellulose) (HPC)): 90 % of control | T/C (dose: 400.0 mg/kg/injection, schedule: Q04DX002 (ip), vehicle: Klucel (hydroxypropylcellulose) (HPC)): 107 % of control

Cn1cccc1/C=C/[N+](=O)[O-]
T/C [9]: 104 % of control | T/C [4]: 91 % of control

CC1(C)C=C2OC(=O)CCC2(C)CC1 (stereo unspecified)
T/C (dose: 100.0 mg/kg/injection, schedule: Q01DX001 (ip), vehicle: Klucel (hydroxypropylcellulose) (HPC)): 106 % of control | T/C [11]: 109 % of control | T/C (dose: 200.0 mg/kg/injection, schedule: Q01DX001 (ip), vehicle: Klucel (hydroxypropylcellulose) (HPC)): 106 % of control | T/C [12]: 112 % of control | T/C (dose: 400.0 mg/kg/injection, schedule: Q01DX001 (ip), vehicle: Klucel (hydroxypropylcellulose) (HPC)): 96 % of control | T/C (dose: 400.0 mg/kg/injection, schedule: Q01DX009 (ip), vehicle: saline with Tween-80): 107 % of control

N/C(N=P(c1ccccc1)(c1ccccc1)c1ccccc1)=N\S(=O)(=O)c1ccc([N+](=O)[O-])cc1
T/C (dose: 25.0 mg/kg/injection, schedule: Q04DX002 (ip), vehicle: Klucel (hydroxypropylcellulose) (HPC)): 104 % of control | T/C (dose: 50.0 mg/kg/injection, schedule: Q04DX002 (ip), vehicle: Klucel (hydroxypropylcellulose) (HPC)): 111 % of control | T/C [14]: 96 % of control

ON=C1CCSCC1
T/C [4]: 107 % of control | T/C [5]: 98 % of control | T/C [6]: 108 % of control

COc1ccc(Cl)cc1NC1=CC(c2ccc(Cl)cc2)OC1=O (stereo unspecified)
T/C [1]: 102 % of control | T/C [2]: 100 % of control | T/C [3]: 91 % of control

C(=N\Nc1nc2ccccc2s1)/c1ccnc2ccccc12
T/C [13]: 102 % of control | T/C (dose: 200.0 mg/kg/injection, schedule: Q01DX009 (ip), vehicle: Klucel (hydroxypropylcellulose) (HPC)): 101 % of control | T/C (dose: 400.0 mg/kg/injection, schedule: Q01DX009 (ip), vehicle: Klucel (hydroxypropylcellulose) (HPC)): 96 % of control
